Measurements from PMC5400099, “5-Hydroxyethyl-3-tetradecanoyltetramic acid represents a novel treatment for intravascular catheter infections due to Staphylococcus aureus” (Journal of Antimicrobial Chemotherapy, 2016).
“And” between values parts separate entries of the source, which are not always exact repeats. Equal entries are not always repeated.

Assays:
[1] = tested on: S. aureus strain BH48; assay: MIC by broth microdilution (CLSI), strain BH48; format: cell-based; conditions: Staphylococcus aureus; BH48 (MSSA), Mueller–Hinton broth
Experimental: Community-acquired MRSA (CA-MRSA) strain USA300, its isogenic agr mutant,[17] the hospital-acquired MRSA (HA-MRSA) strain BH1CC,[18] the HA-MSSA strain BH48[19] and the MSSA strain SH1000[20] were cultured in Mueller–Hinton broth for susceptibility testing or in RPMI-1640 (Gibco) for biofilm formation. For the rat jugular vein catheter infection model, the S. aureus strain USA300 (LAC) lux[21] was used.
5HE-C14-TMA and C14-TOA were synthesized as described previously[9] and C14-TTA as described in the Supplementary data available at JAC Online. Stock solutions of the compounds in DMSO at 10–50 mM were further diluted into tissue culture media or sodium chloride for the in vivo experiments. A DMSO solvent control was used in all in vitro experiments. The following antibiotics were used: vancomycin (Vancocin; Flynn Pharma Ltd., Republic of Ireland), daptomycin (Cubicin; Novartis, UK), gentamicin (Hospira, UK) and tigecycline (Tygacil; Pfizer Inc.). MICs were determined by broth microdilution in Mueller–Hinton broth, as recommended by the CLSI.

[2] = tested on: S. aureus USA300 LAC; assay: Bactericidal activity (time-kill, viable counts); format: cell-based, Staphylococcus aureus; conditions: 8 × MIC
Experimental: S. aureus USA300 LAC was grown overnight in LB medium, diluted 250-fold and grown to an OD600 0.5. Cells were diluted to 1 × 10^6 per mL in challenge medium (LB plus 5HE-C14-TMA, C14-TOA or C14-TTA at 8 × MIC). Samples were removed and viable counts determined at 30 min intervals for the first hour followed by hourly sampling. The CLSI defines a compound as bactericidal if it reduces the starting inoculum colony count by at least 99.9% (3-logs).

[3] = MTT cell viability assay, HaCaT; format: cell-based, Human; conditions: human, HaCaT keratinocyte cells; HaCaT, MTT, 24 h
Experimental: (§1) Human keratinocyte (HaCaT) cells were cultured in DMEM supplemented with 10% (v/v) FBS. Primary human umbilical vein endothelial cells (HUVECs) were cultured in EGM™-2 Bulletkit (Lonza) medium. HaCaT and HUVECs were harvested using TrypLE^TM Express (Gibco). Cells were seeded in microtitre plates at 3 × 10^5 cells/mL and incubated for 24 h at 37 °C with an antimicrobial compound ([…]) or Triton X100 at 1% (v/v). After removing the medium, cells were incubated with 500 mg/L MTT (Sigma-Aldrich) for 4 h. The crystals formed were solubilized with DMSO. Absorbance was recorded at 560 nm and the CC50 was determined.

[4] = tested on: Human keratinocyte (HaCaT) cells; assay: MTT cell viability assay, HaCaT; format: cell-based; conditions: HaCaT cells
Experimental: as §1

[5] = Haemolysis assay; format: cell-based; conditions: red blood cells; human RBC; read-out: CC50 (haemolytic activity)
Experimental: Human blood containing EDTA (1.6 g/L) was centrifuged at 1000 g for 5 min. Red blood cells (RBC) were washed twice with PBS, diluted 2-fold and incubated with compounds or Triton X100 (positive control) at 0.5% (v/v). A570 was determined to quantify haemolysis. IC50s were derived from the corresponding dose–response curves.

[6] = tested on: IL-8 and TNF-α release in human blood; format: cell-based
Experimental: EDTA-treated human blood was incubated in microtitre wells containing either S. aureus USA300 biofilm, 5HE-C14-TMA (at 256 mg/L) only or biofilm with 5HE-C14-TMA (at 256 mg/L) and incubated for 2 h at 37 °C. Plasma samples were collected by centrifugation (1000 g) and assayed for human cytokines using a Bio-Plex 200 (Bio-Rad). A standard curve was employed to maximize sensitivity for samples containing low cytokine levels. At least three different donor blood samples (with three replicates for each) were used.

[7] = tested on: agr quorum sensing system; set-up: method as in PMID 24592914; conditions: S. aureus; cited from earlier work
[8] = 256 mg/L for 2 h, sub-bactericidal dose

In the case of CCCCCCCCCCCCCC(=O)C1=C(O)N[C@@H](CCO)C1=O [5HE-C14-TMA, 5-hydroxyethyl-3-tetradecanoyltetramic acid], the MIC [1] is reported as 6.25 µM and 2 µg/mL, the Reduction of viability ([2]; USA300, over 30 min) is reported as 3 logs and the “Bactericidal activity (CLSI: at least 3-log reduction)” value ([2]; planktonic USA300) is reported as “bactericidal”. The CC50 at 24 h [3] was 181 µM and 64 µg/mL, the “Selectivity index (SI, CC50/MIC)” value [4] was 32 and the CC50 [5] was 246 µM and 87 µg/mL. For the same compound, the “IL-8 level in blood exposed to USA300 biofilm with compound” value [6, 8] was “substantial reductions”, the “TNF-α level in blood exposed to USA300 biofilm with compound” value [6, 8] was “substantial reductions” and the “Cytokine levels in whole human blood, agent only” value ([6]; 256 mg/L, 2 h, no biofilm) was “no increase in cytokine levels”. The “IL-8 and TNF-α levels in response to USA300 agr mutant biofilm with compound” value ([6]; same dose (256 mg/L), agr mutant biofilm) was “no further effect” and the IC50 [7] was 14 µM.
